For one series, the system named is HCC-1937. Kind of series: Colony formation assay, HCC-1937. The class given is cell-based, human. The following applies: for IC50: Homo sapiens, HCC1937, 48 h, read-out: IC50 (concentration required to decrease colony formation by 50%). On the procedure:
(§1) Depending on the cell line (and plating efficiency), 200-350 cells were seeded into each well of a 6-well plate. […] Thereafter, the drugs were removed, fresh growth medium was added, and the cells were kept in culture undisturbed for 12-16 days, during which time the surviving cells spawned colonies of descendants. Colonies (defined as groups of >50 cells) were visualized by staining for 4 hours with 1% methylene blue (in methanol), and then were counted.
(§2) The cytotoxic potency of TMZ-POH, was analyzed by colony formation assay (CFA) in a variety of human breast cancer cell lines and compared to the cytotoxicity of TMZ. We used estrogen receptor positive cells MCF7 and T47D, the triple-negative lines MDA-MB-231, MDA-MB-468, and HCC-1937, and a brain-seeking variant of the 231 cell line, MDA-MB-231-br.

The subject of another series is 231-MGMT-2. Briefly: Colony formation assay, MGMT-transfected 231-MGMT-2. The class given is cell-based, human. The conditions noted are these: for IC50: Homo sapiens, 48 h, read-out: IC50 (concentration required to decrease colony formation by 50%). The method, then: as §1
(§3) In the case of O6-BG treatment, cells were pretreated with 10 μM O6-BG for one hour before addition of TMZ or TMZ-POH. After 24 hours, another 10 μM O6-BG was added to the medium. Another 24 hours later, drug-laced medium was removed, and fresh medium without drugs was added. Thereafter, cells remained undisturbed until staining with methylene blue.
MDA-MB-231 cells were co-transfected in 6-well plates with the use of Lipofectamine 2000 (Invitrogen, Carlsbad, Calif.) according to manufacturer's instructions. 2 μg pSV2MGMT (containing the human MGMT cDNA) was combined with 0.2 μg pSV2neo (containing the neomycin gene for selection of cells in G418). Both plasmids were provided by Bernd Kaina (Mainz, Germany). Individual clones of transfected cells were selected in medium containing 750 μg/mL G418 and propagated in 250 μg/mL G418. G418 was obtained as G418 disulfate salt from Sigma-Aldrich and dissolved in PBS at 75 mg/mL. Selection medium was removed from cells several days before experimental drug treatment.
To investigate the latter, we stably transfected MGMT-negative MDA-MB-231 cells with MGMT cDNA and isolated individual clones. […] Both clones were treated with increasing concentrations of TMZ-POH and TMZ and analyzed by CFA.

Series [1] has as its system TMZ sensitive (U251) cells. Briefly: Colony forming assay, TMZ sensitive U251 cells. Format: cell-based, human. The following applies: in words. On the procedure: (§4) Colony forming assays were carried out after cells were treated with TMZ alone, POH alone, and the TMZ-POH conjugate. […] Cancer Lett. 2011 Mar. 28; 302(2):100-8.
The test system of series [2] is TMZ resistant (U251TR) U251 cells. Briefly: Colony forming assay, TMZ resistant U251TR cells. The class given is cell-based, human. The following applies: in words. On the procedure:
as §4

Another series relates to A172 human glioma cells. Briefly: MTT cytotoxicity assay, A172 glioma cells. The conditions noted are these: A172; result in words. The text has this:
In vitro efficacy of the present composition can be determined using methods well known in the art. For example, the cytoxicity of the present monoterpene (or sesquiterpene) and/or the therapeutic agents may be studied by MTT [3-(4,5-dimethylthiazol-2-yl)-2,5-diphenyl tetrazolium bromide] cytotoxicity assay. MTT assay is based on the principle of uptake of MTT, a tetrazolium salt, by metabolically active cells where it is metabolized into a blue colored formazon product, which can be read spectrometrically. J. of Immunological Methods 65: 55 63, 1983. The cytoxicity of the present monoterpene (or sesquiterpene) derivative and/or the therapeutic agents may be studied by colony formation assay. Functional assays for inhibition of VEGF secretion and IL-8 secretion may be performed via ELISA. Cell cycle block by the present monoterpene (or sesquiterpene) derivative and/or the therapeutic agents may be studied by standard propidium iodide (PI) staining and flow cytometry. Invasion inhibition may be studied by Boyden chambers. In this assay a layer of reconstituted basement membrane, Matrigel, is coated onto chemotaxis filters and acts as a barrier to the migration of cells in the Boyden chambers. Only cells with invasive capacity can cross the Matrigel barrier. Other assays include, but are not limited to cell viability assays, apoptosis assays, and morphological assays.
First cytotoxicity assays were carried out after cells were treated with dimethyl-celecoxib (DMC) alone.
Then U87, A172 and U251 cells were treated with dimethyl celecoxib bisPOH carbamate (POH−DMC) (e.g., synthesized by the method in Example 1), and the MTT cytotoxicity assays performed (FIG. 2).
First cytotoxicity assays were carried out after cells were treated with temozolomide (TMZ) alone, the standard alkylating agent used in the treatment of malignant gliomas.
Then TMZ-resistant glioma cell lines U87, A172 and U251 cells were treated with TMZ-POH (e.g., synthesized by the method in Example 3).
To compare the cytotoxicity of Rolipram POH Carbamate (POH-Rolipram) (e.g., synthesized by the method in Example 5) with rolipram, […] inducing differentiation and apoptosis in glioma cells, A172, U87, U251 and LN229 human glioma cells were treated with either POH-Rolipram or rolipram for 48 hours.

A further series relates to MCF7. Briefly: Colony formation assay, MCF7. The conditions noted are these: for IC50: Homo sapiens, MCF7, 48 h, read-out: IC50 (concentration required to decrease colony formation by 50%). On the procedure: as §1, §3, §2
Another series relates to MDA-MB-231-br. Kind of series: Colony formation assay, MDA-MB-231-br. Format: cell-based, human. The following applies: for IC50: Homo sapiens, 48 h, read-out: IC50 (concentration required to decrease colony formation by 50%). On the procedure: as §1, §2
The subject of series [3] is USC-02 glioma cancer stem cells. Kind of series: MTT cytotoxicity assay, USC-02 glioma cancer stem cells. Format: cell-based. The text has this: Cancer Lett. 2011 Mar. 28; 302(2):100-8.
Another series concerns MDA-MB-231. Kind of series: cells. The following applies: for reduction of colony formation: 10 μM (each), 48 hours; for IC50: Homo sapiens, MDA-MB-231, 48 h, read-out: IC50 (concentration required to decrease colony formation by 50%). The method, then:
as §1, §3, §2
Thus, we tested whether simply mixing the two compounds TMZ and POH could mimic the effects of the TMZ-POH conjugate. MDA-MB-231 cells were treated with the individual compounds (TMZ-POH, TMZ or POH) alone, or with an equimolar mix of TMZ plus POH, and cell survival was analyzed by CFA.

Setting [4] is: low micromolar concentrations, 48 hours, in words.

Molecules are shown by their SMILES. “Also recorded” adds a separate entry of the source.

On to `Cn1nnc2c(C(N)=O)ncn2c1=O` [TMZ, temozolomide, reference compound], for which the IC50 worked out at 186 µM with HCC-1937; 212 µM in the series with 231-MGMT-2; 513 µM in the series on MCF7; 3.8 µM with MDA-MB-231-br; 9.9 µM in the series on MDA-MB-231. Further, the “cytotoxicity (colony forming assay)” value in [1] is listed as “demonstrated cytotoxicity”; in series [2] it was “minimal cytotoxicity”. The “cytotoxicity (MTT assay)” value in the series on A172 human glioma cells is listed as “minimal cytotoxicity”; in [3] (TMZ 0-400 uM, POH 0-2 mM, in words), “did not induce significant cytotoxicity”. The “reduction of colony formation” value in the series on MDA-MB-231 (MDA-MB-231) is on record as “about 50%”.
For the molecule `C=C(C)[C@@H]1CC=C(COC(=O)NC(=O)c2ncn3c(=O)n(C)nnc23)CC1` [TMZ-POH], the IC50 worked out at 31 µM in the series with HCC-1937; 34 µM in the series with 231-MGMT-2; 33 µM in the series with MCF7; 1.2 µM with MDA-MB-231-br; 60 µM in [3] (read-out: cytotoxicity with 1050); 2.3 µM in the series on MDA-MB-231. Also, the “Differential (−fold)” value in the series with HCC-1937 (fold increase in potency of TMZ-POH compared to TMZ, HCC-1937) is 6.0 −fold; in the series on 231-MGMT-2 (fold increase in potency of TMZ-POH compared to TMZ, 231-MGMT-2), 6.2 −fold; with MCF7 (fold increase in potency of TMZ-POH compared to TMZ, MCF7), 15.5 −fold; with MDA-MB-231-br (fold increase in potency of TMZ-POH compared to TMZ, MDA-MB-231-br), 3.2 −fold; in the series with MDA-MB-231 (fold increase in potency of TMZ-POH compared to TMZ, MDA-MB-231) it was 4.3 −fold. In addition, the “colony formation (CFA)” value in the series with HCC-1937 (setting [4]), in the series with MCF7 (setting [4]) and with MDA-MB-231-br (setting [4]) was “prevented colony formation” each time. Besides, the “cytotoxicity (colony forming assay)” value in [1] and in series [2] was “demonstrated cytotoxicity; also recorded: substantially greater potency compared to POH alone” each time. Moreover, the “cytotoxicity (MTT assay)” value in the series on A172 human glioma cells is recorded as “substantially higher kill rates”. In addition, in the series on MDA-MB-231 (MDA-MB-231), the “reduction of colony formation” value was “about 95%”.
